From publication PMC3877016 (PLoS ONE, 2013)

Legend:
[1] = test system: BRDs2, 3 and 4 on chromatin in Huh7 cells; assay: Extraction of soluble BET proteins from chromatin (Western blot); format: cell-based, human
Experimental: Soluble proteins were extracted using a buffer containing 0.5% Triton X-100 (10 mM PIPES pH 6.8, 300 mM sucrose, 50 mMNaCl, 3 mM MgCl2, 1 mM EGTA, 2 mM ribonucleoside vanadyl complex) as previously described.

[2] = test system: ApoA-I and HDL-C levels; parameters: method as in PMID 21255957; settings: statin-treated patients with coronary artery disease; cited from earlier work
[3] = target: T1, BRD2[BD2] (Homo sapiens, UniProt P25440); assay: Isothermal titration calorimetry; format: binding; settings: ITC, 25°C
T1 construct: we expressed and purified the bromodomains (BD1, BD2) for the BETs expressed in hepatocytes (BRD2, BRD3, BRD4)

[4] = test system: ApoA-I mRNA in HepG2; settings: cited from earlier work
[5] = target: BD1 bromodomains of BRDs 2 and 3; assay: TR-FRET competition assay; format: binding, human; settings: BD1 of BRDs 2 and 3, text summary citing Table 3
Experimental: 200 nM N-terminally His-tagged bromodomains or BRD4(BD1BD2) and 25–50 nM biotinylated tetra-acetylated histone H4 peptide (Millipore) were incubated in the presence of Europium Cryptate-labeled streptavidin (Cisbio Cat. #610SAKLB) and XL665-labeled monoclonal anti-His antibody (Cisbio Cat.#61HISXLB) in a white 96 well microtiter plate (Greiner). For inhibition assays, serially diluted compound was added to these reactions in a 0.2% final concentration of DMSO. Final buffer concentrations were 30 mM HEPES pH 7.4, 30 mM NaCl, 0.3 mM CHAPS, 20 mM PO4 pH 7.0, 320 mM KF, 0.08% BSA). After 2 h incubation at room temperature, the fluorescence by FRET was measured at 665 and 620 nm by a SynergyH4 plate reader (Biotek). IC50 values were determined from a dose response curve.

[6] = test system: IL-6 mRNA in U937 cells; assay: Inhibition of IL-6 mRNA in LPS-stimulated U937 cells (RT-PCR); format: cell-based, human; settings: U937 cells differentiated with PMA
Experimental: (§1) Huh7 cells were plated at 23,000/well in a 96 well plate in DMEM +10% FBS before allowing to grow overnight. Cells were treated with compounds for 48 h in 0.1%DMSO with or without 5 µM Actinomycin D. U937 cells were differentiated for 3 days in 60 ng/mL PMA, 32,000 cells/well in 96-well format. Cells were then treated with compound in 0.1%DMSO in RPMI media +10%FBS, and after 1 h, lipopolysaccharide (LPS, Sigma) was added to the cells at 1 µg/mL for 3 hours.
(§2) Cells were harvested by mRNA Catcher PLUS Kit followed by real-time PCR using the RNA UltraSense One-Step qRT-PCR System. ApoA-I, IL-6 and TNFα mRNA levels were measured relative to the endogenous control serpin A1 or cyclophilin in the same sample. Data was acquired using the 7500 Real Time PCR System (Applied Biosystems).

[7] = test system: cholesterol efflux capacity; settings: monkeys; cited from earlier work
[8] = target: T2, GCN5 (Homo sapiens, UniProt Q92830); assay: Protein thermal denaturation assay; format: binding; settings: 5 µM protein, 100 µM compound
T2 construct: bromodomains contained within six other proteins (CREBBP, p300, BAZ2B, GCN5, PHIP and SMARC2A); His-tag (N)
Experimental: (§3) 5 µM of purified bromodomain protein was incubated with 5X SYPRO® Orange (Molecular Probes) at a final concentration of 20 mM HEPES pH 7.4, 100 mM NaCl in the presence of 100 µM compound or DMSO (0.2%) in a fast 96 well optical plate (Applied Biosytems). Samples were incubated at room temperature for 30 minutes and ramped from 25°C to 95°C in a ViiA7 real-time PCR machine (Applied Biosystems). The resulting fluorescence data was analyzed and melting temperatures calculated using Protein Thermal Shift™ Software v1.0 (Life Technologies).

[9] = target: T3, BRD3[BD1] (Homo sapiens, UniProt Q15059); assay: Protein thermal denaturation assay; format: binding; settings: 5 µM protein, 100 µM compound
T3 construct: we expressed and purified the bromodomains (BD1, BD2) for the BETs expressed in hepatocytes (BRD2, BRD3, BRD4)
Experimental: as §3

[10] = target: T4, PHIP (Homo sapiens, UniProt Q8WWQ0); assay: Protein thermal denaturation assay; format: binding; settings: 5 µM protein, 100 µM compound
T4 construct: bromodomains contained within six other proteins (CREBBP, p300, BAZ2B, GCN5, PHIP and SMARC2A); His-tag (N)
Experimental: as §3

[11] = target: T5, SMARCA2A (Homo sapiens, UniProt P51531); assay: Protein thermal denaturation assay; format: binding; settings: 5 µM protein, 100 µM compound
T5 construct: bromodomains contained within six other proteins (CREBBP, p300, BAZ2B, GCN5, PHIP and SMARC2A); His-tag (N)
Experimental: as §3

[12] = target: T1, BRD2[BD2]; assay: Protein thermal denaturation assay; format: binding
Experimental: as §3

[13] = target: T6, BRD3[BD2] (Homo sapiens, UniProt Q15059); assay: Protein thermal denaturation assay; format: binding; settings: 5 µM protein, 100 µM compound
T6 construct: we expressed and purified the bromodomains (BD1, BD2) for the BETs expressed in hepatocytes (BRD2, BRD3, BRD4)
Experimental: as §3

[14] = target: T7, CREBBP (Homo sapiens, UniProt Q92793); assay: Protein thermal denaturation assay; format: binding; settings: 5 µM protein, 100 µM compound
T7 construct: bromodomains contained within six other proteins (CREBBP, p300, BAZ2B, GCN5, PHIP and SMARC2A); His-tag (N)
Experimental: as §3

[15] = target: T8, BRD4[BD2] (Homo sapiens, UniProt O60885); assay: Protein thermal denaturation assay; format: binding
T8 construct: we expressed and purified the bromodomains (BD1, BD2) for the BETs expressed in hepatocytes (BRD2, BRD3, BRD4)
Experimental: as §3

[16] = target: T9, BAZ2B (Homo sapiens, UniProt Q9UIF8); assay: Protein thermal denaturation assay; format: binding; settings: 5 µM protein, 100 µM compound
T9 construct: bromodomains contained within six other proteins (CREBBP, p300, BAZ2B, GCN5, PHIP and SMARC2A); His-tag (N)
Experimental: as §3

[17] = target: T10, BRD2[BD1] (Homo sapiens, UniProt P25440); assay: Protein thermal denaturation assay; format: binding
T10 construct: we expressed and purified the bromodomains (BD1, BD2) for the BETs expressed in hepatocytes (BRD2, BRD3, BRD4)
Experimental: as §3

[18] = target: T11, P300 (Homo sapiens, UniProt Q09472); assay: Protein thermal denaturation assay; format: binding; settings: 5 µM protein, 100 µM compound
T11 construct: bromodomains contained within six other proteins (CREBBP, p300, BAZ2B, GCN5, PHIP and SMARC2A); His-tag (N)
Experimental: as §3

[19] = target: T12, BRD4[BD1] (Homo sapiens, UniProt O60885); assay: Protein thermal denaturation assay; format: binding
T12 construct: we expressed and purified the bromodomains (BD1, BD2) for the BETs expressed in hepatocytes (BRD2, BRD3, BRD4)
Experimental: as §3

[20] = target: T10, BRD2[BD1]; assay: Isothermal titration calorimetry; format: binding; settings: ITC, 25°C
[21] = target: T8, BRD4[BD2]; assay: Isothermal titration calorimetry; format: binding; settings: ITC, 25°C
[22] = test system: ApoA-I mRNA in Huh7 cells; assay: Induction of ApoA-I mRNA in Huh7 cells (RT-PCR); format: cell-based, human; settings: for Induction of ApoA-I mRNA: 48 h
Experimental: as §1, §2

[23] = target: T13, PHIP on chromatin in Huh7 cells (Homo sapiens, UniProt Q8WWQ0); assay: Extraction of soluble proteins from chromatin (Western blot); format: cell-based
T13 construct: endogenous in cells; host or cells: Huh7
Experimental: Soluble proteins were extracted using a buffer containing 0.5% Triton X-100 (10 mM PIPES pH 6.8, 300 mM sucrose, 50 mMNaCl, 3 mM MgCl2, 1 mM EGTA, 2 mM ribonucleoside vanadyl complex) as previously described. After loading on a 4–12% NuPAGE gradient gel (Life Technologies), the soluble and chromatin-containing pellet fractions were evaluated by Western blot with the following antibodies and dilutions: BRD2 (Bethyl, A302-583A, 1∶5000); BRD3 (Bethyl A302-368A, 1∶2000); BRD4 (Bethyl A301-985A, 1∶1000); PHIP (Abcam ab86244, 1∶2000), HNF4a (Perseus PPH1415, 1∶1000); NR2F2 (Perseus PPH7147, 1∶1000).

[24] = test system: bromodomains of CREBBP, p300, BAZ2B, GCN5, PHIP and SMARC2A; assay: Protein thermal denaturation assay (text summary); format: binding
Experimental: as §3

[25] = target: BRDT tandem bromodomains [BD1 BD2] (Homo sapiens, UniProt Q58F21); assay: TR-FRET competition assay, tandem bromodomains; format: binding
Experimental: For inhibition assays, serially diluted compound was added to these reactions in a 0.2% final concentration of DMSO. Final buffer concentrations were 30 mM HEPES pH 7.4, 30 mM NaCl, 0.3 mM CHAPS, 20 mM PO4 pH 7.0, 320 mM KF, 0.08% BSA). After 2 h incubation at room temperature, the fluorescence by FRET was measured at 665 and 620 nm by a SynergyH4 plate reader (Biotek). IC50 values were determined from a dose response curve.

[26] = target: T12, BRD4[BD1]; assay: Isothermal titration calorimetry; format: binding; settings: ITC, 25°C

T1 sequence (P25440 344-453 limits assumed): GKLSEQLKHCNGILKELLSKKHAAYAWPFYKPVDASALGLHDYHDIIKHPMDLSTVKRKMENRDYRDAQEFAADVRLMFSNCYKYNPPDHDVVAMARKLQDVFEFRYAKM
T10 sequence (P25440 74-180 limits assumed): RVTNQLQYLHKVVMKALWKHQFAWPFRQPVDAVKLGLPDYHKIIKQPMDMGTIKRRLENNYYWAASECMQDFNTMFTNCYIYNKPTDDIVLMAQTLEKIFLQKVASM
T7 sequence (Q92793 1085-1192 limits assumed): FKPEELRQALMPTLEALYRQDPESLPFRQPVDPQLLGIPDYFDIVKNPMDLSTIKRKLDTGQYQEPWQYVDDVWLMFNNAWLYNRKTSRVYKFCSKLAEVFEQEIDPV
T11 sequence (Q09472 1049-1156 limits assumed): as the sequence (Q92793 1085-1192 limits assumed) above, with N47S, V73I, F93Y, A98S counted along it
T9 sequence (Q9UIF8 2060-2164 limits assumed): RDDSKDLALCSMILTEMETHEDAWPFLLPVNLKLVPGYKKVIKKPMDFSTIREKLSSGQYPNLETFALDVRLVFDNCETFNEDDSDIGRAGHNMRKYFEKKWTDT
T2 sequence (Q92830 728-832 limits assumed): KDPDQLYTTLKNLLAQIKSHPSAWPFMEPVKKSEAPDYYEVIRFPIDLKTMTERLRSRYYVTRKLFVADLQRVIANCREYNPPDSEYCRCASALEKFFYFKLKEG
T5 sequence (P51531 1378-1506 limits assumed): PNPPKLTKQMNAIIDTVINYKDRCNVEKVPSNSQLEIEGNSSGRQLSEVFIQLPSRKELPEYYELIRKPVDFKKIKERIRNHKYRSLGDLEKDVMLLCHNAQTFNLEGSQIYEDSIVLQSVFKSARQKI
T6 sequence (Q15059 306-415 limits assumed): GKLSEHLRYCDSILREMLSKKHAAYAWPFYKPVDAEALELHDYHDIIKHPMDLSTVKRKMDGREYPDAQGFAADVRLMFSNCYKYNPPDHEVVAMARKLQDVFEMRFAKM
T3 sequence (Q15059 34-140 limits assumed): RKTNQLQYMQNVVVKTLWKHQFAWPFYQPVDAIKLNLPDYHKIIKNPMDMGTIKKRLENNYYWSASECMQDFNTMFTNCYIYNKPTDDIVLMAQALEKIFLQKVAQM

**Q.** For `COc1cc(OC)c2c(=O)[nH]c(-c3cc(C)c(OCCO)c(C)c3)nc2c1` [RVX-208, 2-(4-(2-hydroxyethoxy)-3,5-dimethylphenyl)-5,7-dimethoxyquinazolin-4(3H)-one], which “Duration of release of BET proteins from chromatin” value [1] is on record?
**A.** more than 48 h

**Q.** What about the “Release of BRDs2, 3 and 4 from chromatin into soluble fraction” value [1] of the same compound?
**A.** partially released from chromatin

**Q.** What about the “Time to release of BET proteins from chromatin” value ([1]; time of treatment) of the same compound?
**A.** ≤ 2 h

**Q.** What about the ApoA-I levels [2] of the same compound?
**A.** increased

**Q.** And the HDL-C levels [2]?
**A.** increased

**Q.** What about the ΔH [3] of the same compound?
**A.** -4.145 kcal/mol

**Q.** And the ΔS [3]?
**A.** +16.7 cal mol^−1 K^−1

**Q.** What about the “Induction of ApoA-I mRNA” value [4] of the same compound?
**A.** induces ApoA-I mRNA

**Q.** What about the Kd [5] of the same compound?
**A.** 2000 to 3000 nM

**Q.** And the “Suppression of IL-6 mRNA” value [6]?
**A.** selectively suppresses IL-6 mRNA

**Q.** What about the “Systemic capacity to promote cholesterol efflux” value [7] of the same compound?
**A.** enhanced systemic capacity to promote cholesterol efflux

**Q.** And the ΔTm at 100 µM [8]?
**A.** 0 °C

**Q.** And the ΔTm at 100 µM [9]?
**A.** 2.6 °C

**Q.** And the ΔTm at 100 µM [10]?
**A.** 0.19 °C

**Q.** And the ΔTm at 100 µM [11]?
**A.** 0.4 °C

**Q.** What about the ΔTm at 100 µM [12] of the same compound?
**A.** 5.1 °C

**Q.** What about the ΔTm at 100 µM [13] of the same compound?
**A.** 6.8 °C

**Q.** What about the ΔTm at 100 µM [14] of the same compound?
**A.** -0.3 °C

**Q.** What about the ΔTm at 100 µM [15] of the same compound?
**A.** 7.7 °C

**Q.** And the ΔTm at 100 µM [16]?
**A.** 0 °C

**Q.** What about the ΔTm at 100 µM [17] of the same compound?
**A.** 1.9 °C

**Q.** And the ΔTm at 100 µM [18]?
**A.** -0.16 °C

**Q.** What about the ΔTm at 100 µM [19] of the same compound?
**A.** 3.9 °C

**Q.** And the ΔH [20]?
**A.** -12.67 kcal/mol

**Q.** And the ΔH [21]?
**A.** -6.376 kcal/mol

**Q.** What about the ΔS [21] of the same compound?
**A.** +8.44 cal mol^−1 K^−1

**Q.** And the “Induction of ApoA-I in presence of Actinomycin D” value ([22]; 30 µM RVX-208, with 5 µM Actinomycin D)?
**A.** inhibited by Actinomycin D

**Q.** What about the “Induction of ApoA-I mRNA” value [22] of the same compound?
**A.** induces ApoA-I mRNA

**Q.** What about the “Release of PHIP from chromatin” value [23] of the same compound?
**A.** stays in the insoluble (pellet, P) fraction

**Q.** And the “Binding to bromodomains of six other proteins” value [24]?
**A.** did not bind

**Q.** And the IC50 [25]?
**A.** 1450 nM

**Q.** What about the ΔH [26] of the same compound?
**A.** -17.04 kcal/mol

**Q.** And the ΔS [26]?
**A.** −34.1 cal mol^−1 K^−1

**Q.** For `Cc1sc2c(c1C)C(c1ccc(Cl)cc1)=N[C@@H](CC(=O)OC(C)(C)C)c1nnc(C)n1-2` [JQ-1, reference compound], which “Suppression of IL-6 mRNA” value [6] is on record?
**A.** selectively suppresses IL-6 mRNA

**Q.** And the “Thermal denaturation ΔTm” value [8]?
**A.** −0.7 °C

**Q.** And the “Thermal denaturation ΔTm” value [10]?
**A.** −1.4 °C

**Q.** What about the “Thermal denaturation ΔTm” value [11] of the same compound?
**A.** 0.4 °C

**Q.** What about the “Thermal denaturation ΔTm” value [14] of the same compound?
**A.** −1.0 °C

**Q.** And the “Thermal denaturation ΔTm” value [16]?
**A.** −0.83 °C

**Q.** What about the “Thermal denaturation ΔTm” value [18] of the same compound?
**A.** −1.4 °C

**Q.** What about the “Induction of ApoA-I mRNA” value [22] of the same compound?
**A.** induces ApoA-I mRNA
